Assay results as given in patent US20260258446A1, “SMALL MOLECULE ENHANCERS FOR ADENO-[…] PRODUCTION” (priority 2023, published 2026).
Where a name gives a salt, the structure may show the parent alone.

Experiments:
[1] = tested on: AAV8 production in Viral Production 2.0 cells (293-VP 2.0); experiment: AAV8 production by transient transfection, genome titer by dPCR; assay type: cell-based, human
Method: Candidate small molecules were selected via literature-based searches and encompassed general classes of epigenetic modifiers, PI3K inhibitors, cell cycle modulators, innate immune activators/inhibitors, proteosome inhibitors, kinase inhibitors, free fatty acids, endoplasmic reticulum stress inducers/inhibitors, and autophagy activators/inhibitors. Various candidate small molecule were analyzed in AAV2 or AAV8 production. The initial test concentrations of each small molecule were determined by previous uses of the molecules found in the literature for a variety of applications. For each candidate small molecule, cells were triple transfected with three plasmids encoding the rep/cap genes, gene of interest flanked by […] terminal repeats (ITR) and adenovirus helper molecules. The rep/cap plasmid encoded either AAV2 or AAV8 capsids. The plasmid DNA (pDNA) was combined with the TransIT-VirusGEN® transfection reagent and added to 293-derived suspension cells. The cells were then immediately treated with the small molecule. AAV production occurred over the course of 72 hours, after which virus was harvested. Genomes were assessed by digital PCR (dPCR), and capsids by a specific ELISA or homogeneous based luciferase assay utilizing capsid specific antibodies. The percentage of full capsids was calculated by dividing the total number of genomes by the total number of capsids. A small molecule was considered a successful enhancer of AAV production if it increased AAV as measured by viral genomes 1.5-fold over an untreated control and was not detrimental to the percentage of full capsids, or if it increased the percentage of full capsids 1.5-fold over an untreated control and was not detrimental to the total number of produced AAV as measured by viral genomes. The experimental design may identify small molecules that enhance AAV production.
Viral Production Cells 2.0 (293-VP 2.0; Thermo Fisher Cat. No. A49784) were maintained in Viral Production Media (VPM; Thermo Fisher Cat. No. A4817901) supplemented with 4 mM GlutaMAX™ (Thermo Fisher Cat. No. 35050061). Expi293F™ Cells (Thermo Fisher Cat. No. A14527) were maintained in Expi293™ Expression Medium (Thermo Fisher Cat. No. A1435101). Both cell lines were maintained at the supplier recommended 8% CO2 and 37° C. on a 2.5 cm orbital shaker at 125 rpm.
The day before transfection, cells were passaged to ensure the cells were actively dividing and would reach a density of 4.0-5.0×10^6 cells/mL the day of transfection. The day of transfection, cells were seeded in 6-well non-tissue culture treated plates (Corning, Cat. No. 351146) at a density of 3.0×10^6 cells/mL. A 1 mg/mL DNA solution composed of a 1:1:1 plasmid concentration ratio of a transfer vector (Agilent, Cat. No. 240074-51), an AAV2 RepCap Vector (Aldevron, Cat. No. pALD-AAV2) or an AAV5 RepCap Vector (Aldevron, Cat. No. pALD-AAV5) or an AAV8 RepCap vector (Genemedi, Cat. No. P-RC09) or an AAV9 RepCap vector (Genemedi, Cat. No. p-RC13), and a helper vector (Agilent Cat. No. 240071-54) was formed in water. For each milliliter of culture, 3 μL of TransIT-VirusGEN® (Mirus Bio LLC, Cat. No. MIR 6700) and 2 μg of DNA were added to a final volume of 100 μL Phosphate-buffered saline (PBS; Corning, Cat. No. 21-040-CV) for a final transfection reagent to DNA ratio of 1.5:1. This mixture was incubated at room temperature for 30 minutes to allow transfection complexes to form, after which 100 μL was added per milliliter of culture for a final complexation volume of 10%. In some instances, cells were transfected with 1 μL FectoVIR®-AAV (Polyplus, Cat. No. 101000044) per million cells and 1 μg DNA per million cells for a final transfection reagent to DNA ratio of 1:1, and a final complexation volume of 5%. In some instances, cells were transfected with 1 μL PEIPro® (Polyplus, Cat. No. 101000017) per million cells and 1 μg DNA per million cells for a final transfection reagent to DNA ratio of 1:1, and a final complexation volume of 10%. […]

[2] = tested on: AAV2 or AAV8 production in 293-derived suspension cells; experiment: cells; assay type: cell-based, human
Method: Various candidate small molecule were analyzed in AAV2 or AAV8 production. […] For each candidate small molecule, cells were triple transfected with three plasmids encoding the rep/cap genes, gene of interest flanked by internal terminal repeats (ITR) and adenovirus helper molecules. The rep/cap plasmid encoded either AAV2 or AAV8 capsids. The plasmid DNA (pDNA) was combined with the TransIT-VirusGEN® transfection reagent and added to 293-derived suspension cells. The cells were then immediately treated with the small molecule. AAV production occurred over the course of 72 hours, after which virus was harvested. Genomes were assessed by digital PCR (dPCR), and capsids by a specific ELISA or homogeneous based luciferase assay utilizing capsid specific antibodies. The percentage of full capsids was calculated by dividing the total number of genomes by the total number of capsids. A small molecule was considered a successful enhancer of AAV production if it increased AAV as measured by viral genomes 1.5-fold over an untreated control and was not detrimental to the percentage of full capsids, or if it increased the percentage of full capsids 1.5-fold over an untreated control and was not detrimental to the total number of produced AAV as measured by viral genomes. […]

[3] = from about 0.5 μM to about 40 μM

SMILES: CC[C@@H]1C(=O)N(C)c2cnc(Nc3ccc(C(=O)NC4CCN(C)CC4)cc3OC)nc2N1C1CCCC1 [Compound A, (R)-4-((8-cyclopentyl-7-ethyl-5-methyl-6-oxo-5,6,7,8-tetrahydropteridin-2-yl)amino)-3-methoxy-N-(1-methylpiperidin-4-yl)benzamide]
- Successful enhancer of AAV8 production (genomes or % full capsids 1.5-fold over untreated control) ([1]; from about 0.025 μM to about 1 μM): Successful enhancers

SMILES: CN[C@H]1CCc2cc(OC)c(OC)c(OC)c2-c2ccc(OC)c(=O)cc21 [Compound B, (S)-1,2,3,10-tetramethoxy-7-(methylamino)-6,7-dihydrobenzo[a]heptalen-9 (5H)-one]
- Successful enhancer of AAV8 production (genomes or % full capsids 1.5-fold over untreated control) ([1]; from about 0.0673 μM to about 0.2019 μM): Successful enhancers

SMILES: CC(=O)O[C@@]12CO[C@@H]1C[C@H](O)[C@@]1(C)C(=O)[C@H](O)C3=C(C)[C@@H](OC(=O)[C@H](O)[C@@H](NC(=O)OC(C)(C)C)c4ccccc4)C[C@@](O)([C@@H](OC(=O)c4ccccc4)[C@H]21)C3(C)C [Compound C, [(1S,2S,3R,4S,7R,9S, 10S, 12R, 15S)-4-acetyloxy-1,9,12-trihydroxy-15-[(2R,3S)-2-hydroxy-3-[(2-methylpropan-2-yl)oxycarbonylamino]-3-phenylpropanoyl]oxy-10,14,17,17-tetramethyl-11-oxo-6-oxatetracyclo[11.3.1.0^3,10.0^4,7]heptadec-13-en-2-yl]benzoate]
- Successful enhancer of AAV8 production (genomes or % full capsids 1.5-fold over untreated control) ([1]; from 1 μM to about 20 μM): Successful enhancers
- Increase in AAV8 titers ("Top Hits") ([1]; from about 1 μM to about 20 μM): highest increase in AAV8 titers

SMILES: CCn1cc(-c2ccnc3[nH]c(-c4cccc(CN(C)C)c4)cc23)c(-c2ccc(NC(=O)N(C)C)cc2)n1 [Compound D, 3-(4-(4-(2-(3-((dimethylamino)methyl)phenyl)-1H-pyrrolo[2,3-b]pyridin-4-yl)-1-ethyl-1H-pyrazol-3-yl)phenyl)-1,1-dimethylurea]
- Successful enhancer of AAV8 production (genomes or % full capsids 1.5-fold over untreated control) ([1]; about 0.05 μM): Successful enhancers
- fold induction at 0.05 µM ([2]; Homo sapiens, 72 h, read-out: Fold increase in genomes over no enhancer control): 1.57 to 1.91

SMILES: CC(=O)O[C@H]1C(=O)[C@@]2(C)[C@H]([C@H](OC(=O)c3ccccc3)[C@]3(O)C[C@H](OC(=O)[C@H](O)[C@@H](NC(=O)c4ccccc4)c4ccccc4)C(C)=C1C3(C)C)[C@]1(OC(C)=O)CO[C@@H]1C[C@@H]2O [Compound F, [(1S,2S,3R,4S,7R,9S,10S,12R, 15S)-4,12-diacetyloxy-15-[(2R,3S)-3-benzamido-2-hydroxy-3-phenylpropanoyl]oxy-1,9-dihydroxy-10,14,17,17-tetramethyl-11-oxo-6-oxatetracyclo[11.3.1.0^3,10.0^4,7]heptadec-13-en-2-yl]benzoate]
- Increase in AAV8 titers ("Top Hits") [1, 3]: highest increase in AAV8 titers
- Successful enhancer of AAV8 production (genomes or % full capsids 1.5-fold over untreated control) [1, 3]: Successful enhancers

SMILES: CC(=O)NCC(=O)N1[C@@H]2CC[C@H]1c1ccc(Nc3ncc(C(F)(F)F)c(NC4CCC4)n3)cc12 [Compound G, N-[2-[(1R,8S)-4-[[4-(cyclobutylamino)-5-(trifluoromethyl)pyrimidin-2-yl]amino]-11-azatricyclo[6.2.1.0^2,7]undeca-2 (7),3,5-trien-11-yl]-2-oxoethyl]acetamide]
- Successful enhancer of AAV8 production (genomes or % full capsids 1.5-fold over untreated control) ([1]; from about 0.02 μM to about 0.5 μM): Successful enhancers

SMILES: O=C(CCCCCCC(=O)Nc1ccccc1)NO [SAHA, suberoylanilide hydroxamic acid]
- Successful enhancer of AAV8 production (genomes or % full capsids 1.5-fold over untreated control) ([1]; from about 0.5 μM to about 1 μM): Successful enhancers

SMILES: CCC(=O)[O-].[Na+] [Sodium Propionate]
- Fold increase in genomes over no enhancer control ([2]; 5000 μM-10000 μM): 1.20-1.48 fold

SMILES: CCCC(CCC)C(=O)[O-].[Na+] [Valproic Acid Sodium Salt]
- Successful enhancer of AAV8 production (genomes or % full capsids 1.5-fold over untreated control) ([1]; from about 400 μM to about 2500 μM): Successful enhancers

SMILES: CC[C@]1(O)C[C@@H]2CN(CCc3c([nH]c4ccccc34)[C@@](C(=O)OC)(c3cc4c(cc3OC)N(C)[C@H]3[C@@](O)(C(=O)OC)[C@H](OC(C)=O)[C@]5(CC)C=CCN6CC[C@]43[C@@H]65)C2)C1 [Vinblastine Sulfate]
- Successful enhancer of AAV8 production (genomes or % full capsids 1.5-fold over untreated control) ([1]; from about 2.5 μM to about 15 μM): Successful enhancers
